Measurements taken from patent publication US10800741B2 (ANCUREALL PHARMACEUTICAL (SHANGHAI) CO., LTD., priority 2017, dated 2020).
Like-named read-outs stand apart in the source and are kept apart here.

Key:
Experiment in all cases: KINOMEscan in vitro binding to 468 labeled protein kinases
protein kinases [1] = target: T1, protein kinases (Homo sapiens, UniProt P36888, R834Q); details: FLT3(R834Q), read-out: Test compound/solvent control (%)
T1 construct: purchased Discovery X company (USA), KINOMEscan screening platform
T1 sequence (P36888 27-993 R834Q): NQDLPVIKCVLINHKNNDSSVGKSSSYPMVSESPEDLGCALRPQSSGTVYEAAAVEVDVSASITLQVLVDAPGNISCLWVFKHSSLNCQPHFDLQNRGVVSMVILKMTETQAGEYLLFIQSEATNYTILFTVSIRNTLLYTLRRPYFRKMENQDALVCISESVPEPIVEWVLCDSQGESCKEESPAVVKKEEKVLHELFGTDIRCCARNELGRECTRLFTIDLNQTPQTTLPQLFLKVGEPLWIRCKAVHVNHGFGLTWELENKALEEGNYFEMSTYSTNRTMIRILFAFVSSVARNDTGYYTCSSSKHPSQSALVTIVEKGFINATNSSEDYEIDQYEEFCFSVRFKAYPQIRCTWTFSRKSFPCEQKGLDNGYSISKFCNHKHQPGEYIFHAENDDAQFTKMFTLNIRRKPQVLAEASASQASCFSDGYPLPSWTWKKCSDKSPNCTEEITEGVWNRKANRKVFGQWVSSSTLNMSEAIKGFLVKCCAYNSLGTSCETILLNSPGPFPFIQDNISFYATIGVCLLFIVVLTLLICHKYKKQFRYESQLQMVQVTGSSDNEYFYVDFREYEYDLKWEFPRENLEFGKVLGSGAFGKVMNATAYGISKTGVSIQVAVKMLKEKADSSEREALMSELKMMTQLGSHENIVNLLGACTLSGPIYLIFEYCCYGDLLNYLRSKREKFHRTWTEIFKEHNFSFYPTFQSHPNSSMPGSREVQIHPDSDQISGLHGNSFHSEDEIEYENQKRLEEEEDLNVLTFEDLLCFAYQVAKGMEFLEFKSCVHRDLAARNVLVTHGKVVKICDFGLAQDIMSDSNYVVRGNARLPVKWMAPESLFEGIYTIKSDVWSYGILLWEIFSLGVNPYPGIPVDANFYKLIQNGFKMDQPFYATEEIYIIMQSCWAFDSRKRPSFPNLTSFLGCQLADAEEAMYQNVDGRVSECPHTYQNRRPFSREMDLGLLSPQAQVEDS
In short: (§1)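 Duplicate in vitro binding reactions at 1 nM, 10 nM and 1000 nM compound against a panel of 468 labelled protein kinases (KINOMEscan). Binding expressed relative to solvent control as a percentage, stronger affinity giving a lower value.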

protein kinases [2] = target: T2, protein kinases (Homo sapiens, UniProt P00533, DEL746-750); details: EGFR(E746-A750de1)
T2 construct: purchased Discovery X company (USA), KINOMEscan screening platform
T2 sequence (P00533 with tags, fused parts or gaps DEL746-750): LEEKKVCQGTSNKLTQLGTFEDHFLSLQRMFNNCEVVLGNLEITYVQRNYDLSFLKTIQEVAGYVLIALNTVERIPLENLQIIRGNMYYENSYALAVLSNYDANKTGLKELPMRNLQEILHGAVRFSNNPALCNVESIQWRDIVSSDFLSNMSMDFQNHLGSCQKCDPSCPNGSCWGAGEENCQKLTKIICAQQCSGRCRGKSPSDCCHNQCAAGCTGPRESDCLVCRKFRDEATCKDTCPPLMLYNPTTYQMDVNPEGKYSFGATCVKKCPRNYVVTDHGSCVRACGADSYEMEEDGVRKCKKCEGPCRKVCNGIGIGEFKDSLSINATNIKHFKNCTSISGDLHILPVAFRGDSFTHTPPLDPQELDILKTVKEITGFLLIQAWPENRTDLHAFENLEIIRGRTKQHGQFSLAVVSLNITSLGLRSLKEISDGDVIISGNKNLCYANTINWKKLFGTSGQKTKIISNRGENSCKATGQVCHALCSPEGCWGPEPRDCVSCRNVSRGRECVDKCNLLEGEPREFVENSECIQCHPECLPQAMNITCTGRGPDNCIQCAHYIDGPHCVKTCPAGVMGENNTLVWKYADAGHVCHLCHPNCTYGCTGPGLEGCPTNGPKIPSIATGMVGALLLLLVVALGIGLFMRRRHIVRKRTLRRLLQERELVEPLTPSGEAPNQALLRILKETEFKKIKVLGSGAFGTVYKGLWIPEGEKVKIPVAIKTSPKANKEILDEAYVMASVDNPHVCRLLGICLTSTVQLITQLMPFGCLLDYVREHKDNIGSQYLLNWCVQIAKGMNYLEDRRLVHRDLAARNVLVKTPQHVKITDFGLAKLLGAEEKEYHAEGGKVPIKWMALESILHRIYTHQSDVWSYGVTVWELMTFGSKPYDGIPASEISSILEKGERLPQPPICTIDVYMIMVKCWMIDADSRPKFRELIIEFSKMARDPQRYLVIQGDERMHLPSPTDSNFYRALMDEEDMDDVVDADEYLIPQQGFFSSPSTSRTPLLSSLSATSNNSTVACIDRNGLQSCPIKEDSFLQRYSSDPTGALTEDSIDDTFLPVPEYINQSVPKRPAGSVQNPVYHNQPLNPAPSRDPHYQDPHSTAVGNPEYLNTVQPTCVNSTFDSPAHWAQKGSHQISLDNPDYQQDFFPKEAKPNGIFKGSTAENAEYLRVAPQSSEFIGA
In short: as §1

protein kinases [3] = target: T3, protein kinases (Homo sapiens, UniProt P00519, M351T); details: ABL1(M351T)-phosphorylated, read-out: Test compound/solvent control (%)
T3 construct: purchased Discovery X company (USA), KINOMEscan screening platform
In short: as §1

protein kinases [4] = target: T4, protein kinases (Homo sapiens, UniProt P07949, V804L); details: RET(V804L), read-out: Test compound/solvent control (%)
T4 construct: purchased Discovery X company (USA), KINOMEscan screening platform
T4 sequence (P07949 29-1114 V804L): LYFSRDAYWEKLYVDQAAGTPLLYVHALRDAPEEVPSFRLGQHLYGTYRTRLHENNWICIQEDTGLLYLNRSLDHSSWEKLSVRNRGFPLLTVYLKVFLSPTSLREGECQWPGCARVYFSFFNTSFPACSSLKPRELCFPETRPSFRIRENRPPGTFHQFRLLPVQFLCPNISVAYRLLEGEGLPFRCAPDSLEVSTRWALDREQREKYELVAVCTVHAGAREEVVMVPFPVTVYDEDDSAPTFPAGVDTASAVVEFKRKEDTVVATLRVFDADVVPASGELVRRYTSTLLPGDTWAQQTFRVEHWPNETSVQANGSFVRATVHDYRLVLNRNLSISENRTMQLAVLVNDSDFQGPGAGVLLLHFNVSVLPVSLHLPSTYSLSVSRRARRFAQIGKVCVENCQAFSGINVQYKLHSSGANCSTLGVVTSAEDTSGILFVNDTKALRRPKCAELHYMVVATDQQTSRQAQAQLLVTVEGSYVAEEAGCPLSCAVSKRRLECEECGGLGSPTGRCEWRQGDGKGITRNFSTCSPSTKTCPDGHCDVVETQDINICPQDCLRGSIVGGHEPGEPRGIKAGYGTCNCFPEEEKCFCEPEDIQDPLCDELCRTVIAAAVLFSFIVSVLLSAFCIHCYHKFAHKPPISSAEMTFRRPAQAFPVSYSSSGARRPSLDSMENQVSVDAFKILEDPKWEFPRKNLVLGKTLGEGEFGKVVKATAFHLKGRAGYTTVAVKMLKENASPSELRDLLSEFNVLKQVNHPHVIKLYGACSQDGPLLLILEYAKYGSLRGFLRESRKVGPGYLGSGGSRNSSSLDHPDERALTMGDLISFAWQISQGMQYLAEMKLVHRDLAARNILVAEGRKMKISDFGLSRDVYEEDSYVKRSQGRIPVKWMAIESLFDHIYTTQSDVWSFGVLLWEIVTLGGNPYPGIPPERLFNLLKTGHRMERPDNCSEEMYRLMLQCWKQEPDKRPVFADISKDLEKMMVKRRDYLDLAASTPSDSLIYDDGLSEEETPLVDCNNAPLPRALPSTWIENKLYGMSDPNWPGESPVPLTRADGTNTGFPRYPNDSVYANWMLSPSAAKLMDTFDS
In short: as §1

protein kinases [5] = target: T5, protein kinases (Homo sapiens, UniProt P00519, F317L); details: read-out: Test compound/solvent control (%); for remaining binding at 0.001 µM: 1 nM; for remaining binding at 0.01 µM: 10 nM; for remaining binding at 1 µM: 1000 nM
T5 construct: purchased Discovery X company (USA), KINOMEscan screening platform
In short: as §1

COCCOc1cc2nccc(Oc3ccc(NC(=O)Nc4cc(C(C)(C)C)n[nH]4)c(Cl)c3)c2cc1NC(C)=O [Compound 66, N-[4-{4-[3-(5-tert-butyl-2H-pyrazol-3-yl)-ureido]-3-chloro-phenoxy}-7-(2-methoxy-ethoxy)-quinolin-6-yl]-acetamide]
remaining binding at 0.001 µM (protein kinases [1]; 1 nM): 83% | remaining binding at 0.01 µM (protein kinases [1]; 10 nM): 45% | remaining binding at 1 µM (protein kinases [1]; 1000 nM): 0.6% | Test compound/solvent control (%) (protein kinases [2]; 1 nM): 60% | Test compound/solvent control (%) (protein kinases [2]; 10 nM): 18% | Test compound/solvent control (%) (protein kinases [2]; 1000 nM): 2.8% | remaining binding at 0.001 µM (protein kinases [3]; 1 nM): 100% | remaining binding at 0.01 µM (protein kinases [3]; 10 nM): 22% | remaining binding at 1 µM (protein kinases [3]; 1000 nM): 0.65% | remaining binding at 0.001 µM (protein kinases [4]; 1 nM): 88% | remaining binding at 0.01 µM (protein kinases [4]; 10 nM): 17% | remaining binding at 1 µM (protein kinases [4]; 1000 nM): 0% | remaining binding at 0.001 µM (protein kinases [5]; ABL1(F317L)-phosphorylated): 55% | remaining binding at 0.01 µM (protein kinases [5]; ABL1(F317L)-phosphorylated): 3.7% | remaining binding at 1 µM (protein kinases [5]; ABL1(F317L)-phosphorylated): 1.1% | remaining binding at 0.001 µM (protein kinases [5]; ABL1(F317L)-unphosphorylated): 49% | remaining binding at 0.01 µM (protein kinases [5]; ABL1(F317L)-unphosphorylated): 6.8% | remaining binding at 1 µM (protein kinases [5]; ABL1(F317L)-unphosphorylated): 0.25%
